US20180008672A1, “ANTI-ACTIVIN A ANTIBODIES AND METHODS OF USE THEREOF FOR TREATING PULMONARY ARTERIAL HYPERTENSION” (Regeneron Pharmaceuticals, Inc., priority 2016, published 2018)
Marks after values point to notes of the source that are not given here.

How the values were obtained:
[1] = test system: rat model of pulmonary hypertension induced by monocrotaline; assay: rat model of pulmonary hypertension induced by monocrotaline; format: in vivo, rat (Sprague Dawley)
Procedure: To further evaluate the effect of anti-Activin A antibodies in pulmonary arterial hypertension, a rat model of pulmonary hypertension induced by monocrotaline was used.
Six to seven week old Sprague Dawley rats were used. Rats were separated into treatment groups such that body weights were similar among different groups. Rats were subcutaneously administered either 40 mg/kg of monocrotaline or 5 mL/kg of saline at day 0. At 14 days post injection, saline-injected rats were orally dosed with PEG 400 (at 50:50 v/v, Affymetrix Inc., #19957) at 5 mL/kg daily for two weeks, and monocrotaline-injected rats were separated into 5 groups with a group (n=9) orally dosed with PEG 400 at 5 mL/kg daily for two weeks, another group (n=12) orally administered macintentan at 30 mg/kg daily for two weeks, and three groups that were both orally dosed with PEG 400 at 5 mL/kg daily for two weeks and subcutaneously treated with either anti-Activin A antibodies, H4H10430P (n=9), H4H10446P2 (n=11), or an isotype control antibody (n=10) at 40 mg/kg twice a week for two weeks.
At day 27, pulmonary artery size and right ventricular function and dimensions of the rats were assessed using a high frequency ultrasound system (Vevo 2100, VisualSonics). For the assessment, rats were anesthetized (with 1.5% isoflurane at a rate of 1.0 cc/mL of medical grade air) and their temperature was monitored with a rectal temperature probe and held at approximately 37° C. with a heated platform (Vevo 2100, Visualsonics) and a warming lamp. Both brightness-mode (B-mode) and motion-mode (M-mode) imaging were used. B-mode imaging of the rat heart in cross-section was used to determine pulmonary artery cross-sectional area (PA CSA) at the level of the pulmonary valve. […] was used to determine the pulsed wave velocity time integral (VTI), which is derived from the area under the curve of representative Doppler tracings of blood flow through the pulmonary artery. Right ventricular stroke volume (RV SV) was calculated from the product of PA CSA and VTI. Right ventricular cardiac output (RV CO) was calculated from the product of SV and heart rate (HR). M-mode imaging was used to determine right ventricular free wall (RVFW) thickness during diastole and systole. Animals were returned to their home cages before right ventricular pressure assessment.
Right ventricular pressure was subsequently assessed for all treatment groups. Rats were anesthetized with isoflurane and were kept at approximately 37° C. using a platform (Heated Hard Pad 1, Braintree Scientific) and circulating heated water pump (T/Pump Classic, Gaymar Industries). The neck area for each rat was prepared for surgery by depilating over the right common carotid artery and right jugular vein. An incision was made and the right jugular vein was isolated with care as to not damage the carotid artery and/or the Vagus nerve. A piece of 5-0 silk suture was placed under the isolated jugular vein to allow for retraction of the vessel cranially, then a 26-guage needle was used to introduce a hole into the jugular vein. A pressure catheter (Micro-tip catheter transducer SPR-1000, Millar Instruments, Inc.) was inserted into the opening of the jugular vein and advanced past the right atrium into the right ventricle. The catheter was connected to pressure/volume instrument (MPVS-300, Millar Instruments, Inc.) that measured heart rate as well as both diastolic and systolic right ventricular pressures. These parameters were digitally acquired using a data acquisition system (PowerLab 4/35, ADlnstruments). LabChart Pro 7.0 software (ADlnstruments) was used to analyze right ventricular pressures. Readings were quantified from a 60 second interval of the pressure tracing (following a 2 minute period of recording to allow for pressure stabilization). The parameters analyzed were RV diastolic and systolic pressures, heart rate and ventricular contractile function. […]

[2] = test system: long-term rat monocrotaline in vivo model; assay: long-term rat monocrotaline model, survival; design: species or system rat (Sprague Dawley); conditions: monocrotaline 40 mg/kg SC day 0; therapy from two weeks post-monocrotaline for 5 weeks; antibodies 40 mg/kg SC 2x/wk, macitentan 30 mg/kg PO daily; n=10
Procedure: To evaluate the survival benefit of anti-Activin A antibody in a pulmonary arterial hypertension model, a long-term rat monocrotaline in vivo model was used.
Six-to-seven week old Sprague Dawley rats were used. Rats were separated into treatment groups such that body weights were similar among different groups. Rats were subcutaneously administered either 40 mg/kg of monocrotaline or 5 mL/kg of saline at day 0. At 14 days post-injection, saline-injected rats were subcutaneously treated with saline at 5 mL/kg, twice a week for 5 weeks, unless they died prematurely.
The monocrotaline-injected rats were separated into 4 groups. One group (n=10) was orally administered macitentan at 30 mg/kg daily. A second group (n=10) was subcutaneously administered saline at 5 mL/kg twice a week. A third group (n=10) was subcutaneously treated with either an isotype control antibody, H4H6334P. A fourth group (n=10) was subcutaneously treated with the anti-Activin A antibody, H4H10446P2, at 40 mg/kg twice a week. These monocrotaline-treated rats were started on therapy at two weeks post-monocrotaline and continued for 5 weeks, unless the animal died prematurely.
Animals were monitored twice a day for signs of morbidity or mortality. Based on literature searches, 5-8 weeks after monocrotaline injection is typically a time where morbidity and mortality are likely. […]

[3] = monocrotaline 40 mg/kg SC day 0, antibodies 40 mg/kg SC 2x/wk, macitentan 30 mg/kg PO daily from day 14 for two weeks, ultrasound day 27

CCCNS(=O)(=O)Nc1ncnc(OCCOc2ncc(Br)cn2)c1-c1ccc(Br)cc1 [Macitentan]
PA CSA (Ave ± SEM) [1, 3]: 9.458 ± 0.476** mm^2
Right Ventricular cardiac output (Ave ± SEM) [1, 3]: 127.8 ± 11.7 mL/min
Stroke Volume (Ave ± SEM), right ventricular [1, 3]: 371.6 ± 27.9 µL
effect on right ventricular cardiac output (in words) ([1]; monocrotaline exposed rats): partially restored cardiac output
effect on PA CSA (in words) ([1]; monocrotaline-injected rats, FIG. 3A): restored PA CSA to that of saline-injected rats
effect on right ventricular stroke volume (in words) ([1]; monocrotaline-injected rats, FIG. 3B): partially restored stroke volume
effect on right ventricular hypertrophy, Fulton Index RV/(LV+S) (in words) ([1]; monocrotaline-injected rats, FIG. 3C): did not lessen right ventricular hypertrophy
effect on elevation of right ventricular pressures (in words) ([1]; monocrotaline-injected rats, catheter-based assessment, FIG. 3D): none of the treatment groups (Macitentan or anti-Activin A groups) showed attenuation in the elevation of right ventricular pressures
mortality (animals that died during the study) [2]: Forty
